Results reported in US20230416232A1, “PYRIMIDINE COMPOUNDS, COMPOSITIONS, AND MEDICINAL APPLICATIONS THEREOF” (Blueprint Medicines Corporation, priority 2020, published 2023).
pIC50: −log10 of the molar value.

What was measured:
Type in all cases: cell-based
[1] = target: EGFR(D770_N771insSVD) expressing Ba/F3 stable cell line (Homo sapiens, UniProt P00533, DUP768-770, cells depend on it); test: Cellular proliferation (Alamar Blue) assay, EGFR(D770_N771insSVD) Ba/F3; conditions: 72 hr, read-out: D770 IC50
Sequence of EGFR(D770_N771insSVD) expressing Ba/F3 stable cell line (P00533 with tags, fused parts or gaps DUP768-770): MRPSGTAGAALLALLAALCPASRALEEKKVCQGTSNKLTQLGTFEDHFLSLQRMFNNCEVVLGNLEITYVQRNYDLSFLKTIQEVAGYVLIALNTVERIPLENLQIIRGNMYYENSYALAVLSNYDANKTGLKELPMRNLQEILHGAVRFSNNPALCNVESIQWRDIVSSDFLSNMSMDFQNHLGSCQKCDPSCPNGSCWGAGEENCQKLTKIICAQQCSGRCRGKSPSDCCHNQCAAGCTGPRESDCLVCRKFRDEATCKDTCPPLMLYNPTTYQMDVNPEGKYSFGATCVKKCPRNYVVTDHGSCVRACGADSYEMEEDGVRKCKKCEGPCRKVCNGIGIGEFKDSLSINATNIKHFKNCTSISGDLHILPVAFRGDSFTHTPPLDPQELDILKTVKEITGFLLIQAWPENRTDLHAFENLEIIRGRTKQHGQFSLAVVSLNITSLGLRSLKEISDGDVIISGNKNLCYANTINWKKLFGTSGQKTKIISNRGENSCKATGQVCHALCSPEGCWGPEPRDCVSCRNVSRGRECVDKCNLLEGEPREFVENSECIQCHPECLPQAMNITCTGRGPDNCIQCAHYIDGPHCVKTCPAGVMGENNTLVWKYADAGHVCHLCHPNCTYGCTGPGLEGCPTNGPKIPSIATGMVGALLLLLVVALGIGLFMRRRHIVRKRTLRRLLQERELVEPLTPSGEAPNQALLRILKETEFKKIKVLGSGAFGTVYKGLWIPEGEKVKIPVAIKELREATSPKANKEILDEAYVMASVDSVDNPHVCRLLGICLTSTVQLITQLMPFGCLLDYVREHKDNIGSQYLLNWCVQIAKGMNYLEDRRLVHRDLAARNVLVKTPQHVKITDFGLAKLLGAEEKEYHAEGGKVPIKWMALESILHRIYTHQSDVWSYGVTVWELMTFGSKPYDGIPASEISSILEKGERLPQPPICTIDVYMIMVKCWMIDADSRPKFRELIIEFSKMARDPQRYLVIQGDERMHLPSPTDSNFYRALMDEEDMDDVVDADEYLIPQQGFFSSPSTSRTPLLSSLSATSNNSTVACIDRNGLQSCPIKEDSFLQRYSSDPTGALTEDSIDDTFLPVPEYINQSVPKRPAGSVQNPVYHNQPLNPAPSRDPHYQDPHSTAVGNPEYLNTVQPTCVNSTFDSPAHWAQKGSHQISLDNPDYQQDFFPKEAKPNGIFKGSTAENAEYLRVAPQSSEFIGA
Procedure: Cell line details: • 1. EGFR(D770_N771insSVD) expressing Ba/F3 stable cell line • 2. EGFR (A767_dupASV) expressing Ba/F3 stable cell line • 3. A431 cells • 4. EGFR (H773insNPH) expressing Ba/F3 stable cell line • 5. HER2 (A775_G776insYVMA) expressing Ba/F3 stable cell line
• 1. Seed cells at 5000 for A431 and 15,000 cells for Ba/F3 in 100 μL/well in complete media (for A431: DMEM with 10% FBS and for Ba/F3 cells: RPMI with 10% FBS) in 96-well tissue culture plate. Leave outer wells without cells for background measurements. Incubate at 37 degree Celsius in 5% CO2 humidified incubator for 16-18 hours. • 2. Add 0.025 ml of 5X concentration compound dilution or DMSO control. Final compound concentration range is 10-0.0005 μM prepared in 3-fold serial dilutions. Incubate for 72 hr at 37 degree Celsius in 5% CO2 humidified incubator. • 3. Add 0.0125 ml Alamar Blue™ reagent to each well with multi-channel pipette and tap gently on each side of the plate to mix. Incubate for 3 hours at 37 degree Celsius in 5% CO2 humidified incubator. • 4. […] Data analysis was performed using XLfit 5.5.0.5.

A431 cells = test: Cellular proliferation (Alamar Blue) assay, A431 cells; conditions: Homo sapiens, A-431, 72 h, A431 cells; 72 hr; Alamar Blue; read-out: A431 IC50
How it was run: (§1)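 Viability read-out: Alamar Blue, 3 h at 37 °C, after 72 h compound exposure (final 10-0.0005 μM, 3-fold serial). Seeding: 15,000 Ba/F3/well in RPMI/10% FBS; 5000 A431/well in DMEM/10% FBS; 16-18 h pre-incubation.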

[2] = target: EGFR (A767_dupASV) expressing Ba/F3 stable cell line (Homo sapiens, UniProt P00533, DUP767-769, cells depend on it); test: Cellular proliferation (Alamar Blue) assay, EGFR (A767_dupASV) Ba/F3; conditions: 72 hr, read-out: A767 IC50
Sequence of EGFR (A767_dupASV) expressing Ba/F3 stable cell line (P00533 with tags, fused parts or gaps DUP767-769): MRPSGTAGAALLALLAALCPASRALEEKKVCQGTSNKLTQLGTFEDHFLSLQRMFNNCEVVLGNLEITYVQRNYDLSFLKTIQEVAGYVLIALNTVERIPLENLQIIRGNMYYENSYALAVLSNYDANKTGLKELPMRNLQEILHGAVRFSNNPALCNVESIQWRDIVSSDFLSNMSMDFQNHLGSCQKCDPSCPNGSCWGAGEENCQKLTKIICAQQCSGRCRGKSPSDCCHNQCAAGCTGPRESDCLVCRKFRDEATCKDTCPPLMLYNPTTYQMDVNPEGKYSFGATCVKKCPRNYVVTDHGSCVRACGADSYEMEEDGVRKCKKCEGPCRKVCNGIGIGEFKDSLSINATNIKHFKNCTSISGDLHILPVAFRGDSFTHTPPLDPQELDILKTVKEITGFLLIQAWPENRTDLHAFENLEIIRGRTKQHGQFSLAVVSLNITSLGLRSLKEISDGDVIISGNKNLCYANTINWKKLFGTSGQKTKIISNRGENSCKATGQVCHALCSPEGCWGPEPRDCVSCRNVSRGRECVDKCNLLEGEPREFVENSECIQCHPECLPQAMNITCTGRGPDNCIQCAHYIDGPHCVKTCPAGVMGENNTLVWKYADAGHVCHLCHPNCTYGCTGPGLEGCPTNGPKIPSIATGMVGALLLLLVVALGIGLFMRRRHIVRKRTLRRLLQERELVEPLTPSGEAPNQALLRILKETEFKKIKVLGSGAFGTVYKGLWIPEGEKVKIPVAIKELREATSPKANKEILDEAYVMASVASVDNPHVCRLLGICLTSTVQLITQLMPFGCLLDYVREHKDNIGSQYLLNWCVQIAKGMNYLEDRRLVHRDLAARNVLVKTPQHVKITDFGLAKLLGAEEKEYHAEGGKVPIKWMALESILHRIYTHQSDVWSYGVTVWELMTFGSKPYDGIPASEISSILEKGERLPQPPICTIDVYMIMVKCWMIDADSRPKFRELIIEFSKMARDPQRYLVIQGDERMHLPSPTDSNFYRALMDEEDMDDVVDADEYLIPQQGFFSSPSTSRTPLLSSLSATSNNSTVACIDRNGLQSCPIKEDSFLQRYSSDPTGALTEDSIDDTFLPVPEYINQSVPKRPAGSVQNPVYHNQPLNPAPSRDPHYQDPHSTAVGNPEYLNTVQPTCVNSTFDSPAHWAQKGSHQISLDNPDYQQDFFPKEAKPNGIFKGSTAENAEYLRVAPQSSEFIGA
How it was run: as §1

[3] = target: HER2 (A775_G776insYVMA) expressing Ba/F3 stable cell line (Homo sapiens, UniProt P04626, DUP772-775, cells depend on it); test: Cellular proliferation (Alamar Blue) assay, HER2 (A775_G776insYVMA) Ba/F3; conditions: HER2 (A775_G776insYVMA) Ba/F3 cells; 72 hr; Alamar Blue; read-out: YVMA IC50
Sequence of HER2 (A775_G776insYVMA) expressing Ba/F3 stable cell line (P04626 with tags, fused parts or gaps DUP772-775): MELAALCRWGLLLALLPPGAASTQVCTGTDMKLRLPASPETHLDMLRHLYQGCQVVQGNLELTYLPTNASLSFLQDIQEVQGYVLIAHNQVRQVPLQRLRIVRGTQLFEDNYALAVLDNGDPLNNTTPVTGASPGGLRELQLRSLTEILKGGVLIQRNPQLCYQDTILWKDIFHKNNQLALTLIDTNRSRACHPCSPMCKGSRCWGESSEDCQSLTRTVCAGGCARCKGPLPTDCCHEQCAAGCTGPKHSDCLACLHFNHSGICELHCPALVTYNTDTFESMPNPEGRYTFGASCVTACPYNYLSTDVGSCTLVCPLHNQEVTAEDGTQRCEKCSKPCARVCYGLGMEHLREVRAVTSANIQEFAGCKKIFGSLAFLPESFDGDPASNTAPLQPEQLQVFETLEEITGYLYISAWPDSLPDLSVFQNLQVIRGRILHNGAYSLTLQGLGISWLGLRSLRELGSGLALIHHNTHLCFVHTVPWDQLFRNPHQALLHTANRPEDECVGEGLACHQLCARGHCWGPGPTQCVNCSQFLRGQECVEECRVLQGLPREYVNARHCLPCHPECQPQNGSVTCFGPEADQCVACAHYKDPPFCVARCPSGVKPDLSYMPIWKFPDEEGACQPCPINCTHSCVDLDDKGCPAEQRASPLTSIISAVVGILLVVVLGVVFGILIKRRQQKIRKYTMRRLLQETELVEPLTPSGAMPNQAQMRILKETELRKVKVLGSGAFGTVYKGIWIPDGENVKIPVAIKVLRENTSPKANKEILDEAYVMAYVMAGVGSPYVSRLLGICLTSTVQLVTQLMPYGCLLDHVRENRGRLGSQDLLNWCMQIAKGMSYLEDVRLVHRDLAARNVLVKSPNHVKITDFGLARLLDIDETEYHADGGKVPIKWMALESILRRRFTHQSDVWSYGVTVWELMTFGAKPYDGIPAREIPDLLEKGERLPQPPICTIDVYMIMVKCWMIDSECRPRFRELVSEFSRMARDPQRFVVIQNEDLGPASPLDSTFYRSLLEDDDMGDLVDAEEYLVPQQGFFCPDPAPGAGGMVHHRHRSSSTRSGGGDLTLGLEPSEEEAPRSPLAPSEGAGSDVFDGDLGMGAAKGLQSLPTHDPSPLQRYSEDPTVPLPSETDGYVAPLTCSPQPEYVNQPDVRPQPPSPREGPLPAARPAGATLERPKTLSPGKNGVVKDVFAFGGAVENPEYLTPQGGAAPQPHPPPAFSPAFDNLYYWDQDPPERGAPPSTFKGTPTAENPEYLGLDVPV
How it was run: as §1

Compound	GI50 [1] [nM]	pIC50 (A431 cells)	GI50 [2] [nM]	GI50 [3] [nM]
C=CC(=O)Nc1ccc(F)c(Nc2nc(Nc3cnn(C)c3)ncc2-c2cccc(Br)c2F)c1 [Compound 113, N-(3-((5-(3-bromo-2-fluorophenyl)-2-((1-methyl-1H-pyrazol-4-yl)amino)pyrimidin-4-yl)amino)-4-fluorophenyl)acrylamide]	70	7.14	92	463
C=CC(=O)Nc1ccc(F)c(Nc2nc(Nc3cnn(C)c3)ncc2-c2cc(F)c(Br)c(Cl)c2)c1 [Compound 123, N-(3-((5-(4-bromo-3-chloro-5-fluorophenyl)-2-((1-methyl-1H-pyrazol-4-yl)amino)pyrimidin-4-yl)amino)-4-fluorophenyl)acrylamide]	40	7.15	50	66
C=CC(=O)Nc1cccc(Nc2nc(Nc3cnn(C)c3)ncc2-c2ccc(OC(F)F)c(F)c2)c1 [Compound 124, N-(3-((5-(4-(difluoromethoxy)-3-fluorophenyl)-2-((1-methyl-1H-pyrazol-4-yl)amino)pyrimidin-4-yl)amino)phenyl)acrylamide]	11	8.22	21	49
C=CC(=O)Nc1ccc(F)c(Nc2nc(Nc3cnn(C)c3)ncc2-c2cc(F)c(F)c(OC)c2)c1 [Compound 126, N-(3-((5-(3,4-difluoro-5-methoxyphenyl)-2-((1-methyl-1H-pyrazol-4-yl)amino)pyrimidin-4-yl)amino)-4-fluorophenyl)acrylamide]	40	7.37	100	153
C=CC(=O)Nc1cc(Br)cc(Nc2nc(Nc3cnn(C)c3)ncc2-c2ccc(OC(F)F)c(F)c2)c1 [Compound 132, N-(3-bromo-5-((5-(4-(difluoromethoxy)-3-fluorophenyl)-2-((1-methyl-1H-pyrazol-4-yl)amino)pyrimidin-4-yl)amino)phenyl)acrylamide]	34	7.29	40	345
C=CC(=O)Nc1ccc(F)c(Nc2nc(Nc3cnn(C)c3)ncc2-c2cc(F)c(C(F)(F)F)c(OC)c2)c1 [Compound 133, N-(4-fluoro-3-((5-(3-fluoro-5-methoxy-4-(trifluoromethyl)phenyl)-2-((1-methyl-1H-pyrazol-4-yl)amino)pyrimidin-4-yl)amino)phenyl)acrylamide]	251	6.40	322	1270
C=CC(=O)Nc1ccc(F)c(Nc2nc(Nc3cnn(C)c3)ncc2-c2cc(F)c(F)c(C(F)F)c2)c1 [Compound 141, N-(3-((5-(3-(difluoromethyl)-4,5-difluorophenyl)-2-((1-methyl-1H-pyrazol-4-yl)amino)pyrimidin-4-yl)amino)-4-fluorophenyl)acrylamide]	16	7.89	25	167
C=CC(=O)Nc1ccc(F)c(Nc2nc(Nc3cnn(C)c3)ncc2-c2cc(F)c(F)c(F)c2)c1 [Compound 149, N-(4-fluoro-3-((2-((1-methyl-1H-pyrazol-4-yl)amino)-5-(3,4,5-trifluorophenyl)pyrimidin-4-yl)amino)phenyl)acrylamide]	11	7.96	34	92
C=CC(=O)Nc1ccc(F)c(Nc2nc(Nc3cnn(C)c3)ncc2-c2cc(C(F)F)cc(C(F)F)c2)c1 [Compound 155, N-(3-((5-(3,5-bis(difluoromethyl)phenyl)-2-((1-methyl-1H-pyrazol-4-yl)amino)pyrimidin-4-yl)amino)-4-fluorophenyl)acrylamide]	107	6.47	133	1670
C=CC(=O)Nc1ccc(F)c(Nc2nc(Nc3cnn(C)c3)ncc2-c2cc(F)c(Cl)c(F)c2)c1 [Compound 158, N-(3-((5-(4-chloro-3,5-difluorophenyl)-2-((1-methyl-1H-pyrazol-4-yl)amino)pyrimidin-4-yl)amino)-4-fluorophenyl)acrylamide]	11	8.00	15	40
C=CC(=O)Nc1cc(Cl)cc(Nc2nc(Nc3cnn(C)c3)ncc2-c2ccc(Br)c(F)c2)c1 [Compound 159, N-(3-((5-(4-bromo-3-fluorophenyl)-2-((1-methyl-1H-pyrazol-4-yl)amino)pyrimidin-4-yl)amino)-5-chlorophenyl)acrylamide]	24	7.64	29	125
C=CC(=O)Nc1ccc(F)c(Nc2nc(Nc3cnn(C)c3)ncc2-c2cc(F)c(F)c(OC(F)F)c2)c1 [Compound 160, N-(3-((5-(3-(difluoromethoxy)-4,5-difluorophenyl)-2-((1-methyl-1H-pyrazol-4-yl)amino)pyrimidin-4-yl)amino)-4-fluorophenyl)acrylamide]	68	6.58	63	163

The remaining lines, values ahead:

GI50 [1] [nM]	pIC50 (A431 cells)	GI50 [2] [nM]	GI50 [3] [nM]	Compound
32	7.96	36	86	C=CC(=O)Nc1cccc(Nc2nc(Nc3cnn(C)c3)ncc2-c2ccc(Br)c(F)c2)c1 [Compound 115, N-(3-((5-(4-bromo-3-fluorophenyl)-2-((1-methyl-1H-pyrazol-4-yl)amino)pyrimidin-4-yl)amino)phenyl)acrylamide]
135	6.18	328	141	CN(C)C/C=C/C(=O)Nc1ccc(F)c(Nc2nc(Nc3cnn(C)c3)ncc2-c2cc(F)cc(F)c2)c1 [Compound 117, (E)-N-(3-((5-(3,5-difluorophenyl)-2-((1-methyl-1H-pyrazol-4-yl)amino)pyrimidin-4-yl)amino)-4-fluorophenyl)-4-(dimethylamino)but-2-enamide]
89	6.91	312	167	C=CC(=O)Nc1cccc(Nc2nc(Nc3cnn(C)c3)ncc2-c2cc(F)cc(OC)c2)c1 [Compound 127, N-(3-((5-(3-fluoro-5-methoxyphenyl)-2-((1-methyl-1H-pyrazol-4-yl)amino)pyrimidin-4-yl)amino)phenyl)acrylamide]
126	6.67	110	237	CN(C)C/C=C/C(=O)Nc1cccc(Nc2nc(Nc3cnn(C)c3)ncc2-c2cc(F)cc(F)c2)c1 [Compound 150, (E)-N-(3-((5-(3,5-difluorophenyl)-2-((1-methyl-1H-pyrazol-4-yl)amino)pyrimidin-4-yl)amino)phenyl)-4-(dimethylamino)but-2-enamide]
11	8.10	34	40	C=CC(=O)Nc1cccc(Nc2nc(Nc3cnn(C)c3)ncc2-c2cc(F)c(Br)c(F)c2)c1 [Compound 152, N-(3-((5-(4-bromo-3,5-difluorophenyl)-2-((1-methyl-1H-pyrazol-4-yl)amino)pyrimidin-4-yl)amino)phenyl)acrylamide]
13	5.96	34	98	C=CC(=O)Nc1cccc(Nc2nc(Nc3cnn(C)c3)ncc2-c2cc(F)c(C(F)(F)F)c(F)c2)c1 [Compound 153, N-(3-((5-(3,5-difluoro-4-(trifluoromethyl)phenyl)-2-((1-methyl-1H-pyrazol-4-yl)amino)pyrimidin-4-yl)amino)phenyl)acrylamide]
34	5.75	81	154	C=CC(=O)Nc1cccc(Nc2nc(Nc3cnn(C)c3)ncc2-c2cc(F)c(Br)c(Cl)c2)c1 [Compound 154, N-(3-((5-(4-bromo-3-chloro-5-fluorophenyl)-2-((1-methyl-1H-pyrazol-4-yl)amino)pyrimidin-4-yl)amino)phenyl)acrylamide]
16	7.64	35	151	[2H]c1c(F)cc(-c2cnc(Nc3cnn(C)c3)nc2Nc2cc(NC(=O)C=C)ccc2F)cc1F [Compound 157, N-[3-({5-[3,5-difluoro(4-^2H)phenyl]-2-[(1-methyl-1H-pyrazol-4-yl)amino]pyrimidin-4-yl}amino)-4-fluorophenyl] prop-2-enamide]
